Measurements: patent EP4610269A1, “UROKINASE PLASMINOGEN ACTIVATOR SURFACE RECEPTOR (UPAR) LIGANDS FOR DIAGNOSTIC OR THERAPEUTIC USE” (3B Pharmaceuticals GmbH, priority 2024, dated 2025)
Where two headings read alike, the source gives them in different places. *1 amine or outer side, *2 acyl side, *3 side chain or, on linkers, in order; H or OH if unused. Where a SMILES comes first, the peptide text is derived from it. Bridges are numbered along the chain shown (N, C = ends). Side-chain parts run from the residue outwards. [ ]: non-standard residue; d: D form. The star is where a group is joined. DOTA(Lu) = O=C1CN2CCN3CCN(CC(=O)*)CCN(CC2)CC(=O)[O][Lu]([O]1)[O]C(=O)C3; X6 = O=C(O)CN1CCN(CC(=O)O)CCN(CC(=O)NCCCOCCOCCOCCCN*)CCN(CC(=O)O)CC1; nBuCAyl = n-butyl-carbamoyl (N-terminal blocking group), CCCCNC(=O)*; DOTA = O=C(O)CN1CCN(CC(=O)O)CCN(CC(=O)*)CCN(CC(=O)O)CC1; Oic = O=C(O)[C@@H]1C[C@@H]2CCCC[C@@H]2N1; Pro(cis-4-F) = O=C(O)[C@@H]1C[C@H](F)CN1; Dopa = N[C@@H](Cc1ccc(O)c(O)c1)C(=O)O; Hyp = O=C(O)[C@@H]1C[C@@H](O)CN1; Cit = NC(=O)NCCC[C@H](N)C(=O)O; Butoxycarbonyl = CCCCOC(=O)*; NMeK = CN[C@@H](CCCCN)C(=O)O; Phg = N[C@H](C(=O)O)c1ccccc1; Suc = O=C(CCC(=O)[*:2])[*:1]; dNle = CCCC[C@@H](N)C(=O)O; Nle = CCCC[C@H](N)C(=O)O; Nva = CCC[C@H](N)C(=O)O; Pentanoyl = CCCCC(=O)*

Assays:
[1] = target: T1, uPAR-expressing HEC-265 human endometrial adenocarcinoma cells (Homo sapiens, UniProt Q03405); experiment: Competitive FACS binding assay; details: pIC50 category of FACS binding
T1 construct: Cell surface uPAR-expressing HEC-265 human endometrial adenocarcinoma cells; host or cells: HEC-265
Summary of the method: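 HEC-265 cells incubated 1 h at 4 °C with 10 nM biotinylated uPAR peptide tracer plus increasing test compound, then stained with APC-streptavidin on ice. Median APC fluorescence by flow cytometry; 4PL fit gives pIC50.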

human uPAR (uPAR-Fc) = target: T2, human uPAR (uPAR-Fc) (Homo sapiens, UniProt Q03405); experiment: Surface plasmon resonance (SPR) assay, single cycle kinetics; format: binding; details: pKD category for uPAR SPR activity assay, uPAR-Fc on Protein A-Chip, 25°C; for Kd: read-out: pKD CAT (converted)
T2 construct: comprising amino acids Leu23-Arg303 according to UniProt entry Q03405.1; purchased R&D Systems 10378-UK-100
Summary of the method: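 uPAR-Fc (Leu23-Arg303 extracellular domains, human IgG1 Fc) captured on Protein A chip to ~2000 RU; single-cycle kinetics at 25°C in HEPES running buffer pH 7.4 with 0.1% DMSO. KD from double-referenced sensorgrams fitted to 1:1 Langmuir model, reported as pKD.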

T2 sequence (Q03405 23-303): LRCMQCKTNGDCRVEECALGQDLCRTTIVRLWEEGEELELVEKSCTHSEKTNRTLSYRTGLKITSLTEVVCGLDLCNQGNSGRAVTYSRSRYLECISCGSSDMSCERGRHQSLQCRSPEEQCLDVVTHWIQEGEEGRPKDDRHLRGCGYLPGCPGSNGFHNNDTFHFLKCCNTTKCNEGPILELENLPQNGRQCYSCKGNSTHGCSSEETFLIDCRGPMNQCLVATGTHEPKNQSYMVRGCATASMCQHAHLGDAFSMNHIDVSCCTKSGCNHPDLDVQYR
T1 sequence (Q03405 23-335): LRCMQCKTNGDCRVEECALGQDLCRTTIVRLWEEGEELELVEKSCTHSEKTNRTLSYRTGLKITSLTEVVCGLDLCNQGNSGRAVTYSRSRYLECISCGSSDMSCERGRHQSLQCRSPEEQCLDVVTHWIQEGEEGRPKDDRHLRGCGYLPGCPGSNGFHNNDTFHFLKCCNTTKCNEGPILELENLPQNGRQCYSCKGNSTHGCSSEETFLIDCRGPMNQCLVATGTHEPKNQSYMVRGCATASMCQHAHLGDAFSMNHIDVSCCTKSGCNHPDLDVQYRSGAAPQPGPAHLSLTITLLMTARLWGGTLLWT

IC50 [1] [nM]	Kd (human uPAR (uPAR-Fc)) [nM]	pIC50 CAT [1]	pKD CAT (human uPAR (uPAR-Fc); single cycle kinetics)	Molecule	Kd (human uPAR (uPAR-Fc); single cycle kinetics) [nM]
≥ 126	> 100	–	–	CCCCC(=O)N[C@H]1CSSC[C@@H](C(N)=O)NC(=O)[C@H](CCC)NC(=O)[C@H]([C@@H](C)CC)NC(=O)[C@@H]2C[C@@H](O)CN2C(=O)[C@@H]2CCCN2C(=O)[C@H](Cc2ccccc2)NC(=O)[C@H](c2ccccc2)NC(=O)[C@H](CCC(N)=O)NC(=O)[C@H](CCCNC(=N)N)NC1=O [UPAR-196, Pent-[Cys-Arg-Gln-Phg-Phe-Pro-Hyp-Ile-Nva-Cys]-NH2] (Pentanoyl-CRQ[Phg]FP[Hyp]I[Nva]C-NH2; disulfide 1-10)	–
12.6 to 31.6	< 1.58	–	–	CCCCC(=O)N[C@H]1CSSC[C@@H](C(N)=O)NC(=O)[C@H](CCC)NC(=O)[C@H]([C@@H](C)CC)NC(=O)[C@@H]2C[C@@H]3CCCC[C@@H]3N2C(=O)[C@@H]2CCCN2C(=O)[C@H](Cc2ccccc2)NC(=O)[C@H](Cc2ccc(O)cc2)NC(=O)[C@H](CCC(N)=O)NC(=O)[C@H](CCCNC(=N)N)NC1=O [UPAR-190, Pent-[Cys-Arg-Gln-Tyr-Phe-Pro-Oic-Ile-Nva-Cys]-NH2] (Pentanoyl-CRQYFP[Oic]I[Nva]C-NH2; disulfide 1-10)	–
–	–	A (pIC50 values ≥8.0)	A (pKD values ≥ 8.8)	nBuCAyl-[Cys-Cit-Lys(LuDOTA)-Tyr-Phe-Pro-Hyp-Ile-Nva-Cys]-NH2 (nBuCAyl-C[Cit]K(DOTA(Lu))YFP[Hyp]I[Nva]C-NH2; disulfide 1-10; also: Lu(III) chelated by DOTA on Lys3) [UPAR-464]	–
12.6 to 31.6	1.58 to 10	–	–	CCCC[C@H]1NC(=O)[C@H](CCCNC(=N)N)NC(=O)[C@@H](NC(=O)[C@H](CC(C)C)NC(=O)[C@H](CC(=O)O)NC(C)=O)CSSC[C@@H](C(N)=O)NC(=O)[C@H](CC(C)C)NC(=O)[C@H]([C@@H](C)CC)NC(=O)[C@H](C)NC(=O)[C@@H]2CCCN2C(=O)[C@H](Cc2ccccc2)NC(=O)[C@H](Cc2ccc(O)cc2)NC1=O [UPAR-274, Ac-Asp-Leu-[Cys-Arg-nle-Tyr-Phe-Pro-Ala-Ile-Leu-Cys]-NH2] (Ac-DLCR[dNle]YFPAILC-NH2; disulfide 3-12)	–
≥ 126	> 100	–	–	CCCCC(=O)N[C@H]1CSSC[C@@H](C(N)=O)NC(=O)[C@H](CCC)NC(=O)[C@H]([C@@H](C)CC)NC(=O)[C@H](CCCCN)N(C)C(=O)[C@@H]2CCCN2C(=O)[C@H](Cc2ccccc2)NC(=O)[C@H](Cc2ccc(O)cc2)NC(=O)[C@H](CCCCNC(=O)CN2CCN(CC(=O)O)CCN(CC(=O)O)CCN(CC(=O)O)CC2)NC(=O)[C@H](CCCNC(N)=O)NC1=O [UPAR-173, Pent-[Cys-Cit-Lys(DOTA)-Tyr-Phe-Pro-Nmk-Ile-Nva-Cys]-NH2] (Pentanoyl-C[Cit]K(DOTA)YFP[NMeK]I[Nva]C-NH2; disulfide 1-10)	–
≤ 10	–	–	–	CCCC[C@H](NC(=O)CCC(=O)NCCCOCCOCCOCCCNC(=O)CN1CCN(CC(=O)O)CCN(CC(=O)O)CCN(CC(=O)O)CC1)C(=O)N[C@@H](CC(=O)O)C(=O)N[C@@H](CC(C)C)C(=O)N[C@H]1CSSC[C@@H](C(N)=O)NC(=O)[C@H](CC(C)C)NC(=O)[C@H]([C@@H](C)CC)NC(=O)[C@H](C)NC(=O)[C@@H]2CCCN2C(=O)[C@H](Cc2ccccc2)NC(=O)[C@H](Cc2ccc(O)cc2)NC(=O)[C@H](CCSC)NC(=O)[C@H](CCCNC(=N)N)NC1=O [UPAR-347, DOTA-Ttds-Nle-Asp-Leu-[Cys-Arg-Met-Tyr-Phe-Pro-Ala-Ile-Leu-Cys]-NH2] ({X6-Suc}-[Nle]DLCRMYFPAILC-NH2; disulfide 4-13)	< 1.58
≤ 10	< 1.58	–	–	CCCCC(=O)N[C@H]1CSSC[C@@H](C(N)=O)NC(=O)[C@H](CCC)NC(=O)[C@H]([C@@H](C)CC)NC(=O)[C@@H]2C[C@@H](O)CN2C(=O)[C@@H]2CCCN2C(=O)[C@H](Cc2ccccc2)NC(=O)[C@H](Cc2ccc(O)cc2)NC(=O)[C@H](CCC(N)=O)NC(=O)CNC1=O [UPAR-236, Pent-[Cys-Gly-Gln-Tyr-Phe-Pro-Hyp-Ile-Nva-Cys]-NH2] (Pentanoyl-CGQYFP[Hyp]I[Nva]C-NH2; disulfide 1-10)	–

Molecule	IC50 [1] [nM]	Kd (human uPAR (uPAR-Fc)) [nM]	pIC50 CAT [1]	pKD CAT (human uPAR (uPAR-Fc); single cycle kinetics)	Kd (human uPAR (uPAR-Fc); single cycle kinetics) [nM]
CCCCOC(=O)N[C@H]1CSSC[C@@H](C(N)=O)NC(=O)[C@H](CCC)NC(=O)[C@H]([C@@H](C)CC)NC(=O)[C@@H]2C[C@@H](O)CN2C(=O)[C@@H]2C[C@H](F)CN2C(=O)[C@H](Cc2ccccc2)NC(=O)[C@H](Cc2ccc(O)c(O)c2)NC(=O)[C@H](CCCCNC(=O)[C@@H](CC(=O)O)NC(=O)CN2CCN(CC(=O)O)CCN(CC(=O)O)CCN(CC(=O)O)CC2)NC(=O)[C@H]([C@@H](C)O)NC1=O [UPAR-459, Butoc-[Cys-Thr-Lys(DOTA-asp)-Dopa-Phe-4Cfp-Hyp-Ile-Nva-Cys]-NH2] (Butoxycarbonyl-CTK([dD-DOTA])[Dopa]F[Pro(cis-4-F)][Hyp]I[Nva]C-NH2; disulfide 1-10)	≤ 10	–	–	–	< 1.58
